Key:
Pim3 kinase = Pim3 kinase (Homo sapiens (Human), UniProt Q86V86); details: read-out: Pim3 IC50
Pim1 kinase = Pim1 kinase (Homo sapiens (Human), UniProt P11309); details: read-out: Pim1 IC50
Chain of Pim1 kinase (P11309 whole entry): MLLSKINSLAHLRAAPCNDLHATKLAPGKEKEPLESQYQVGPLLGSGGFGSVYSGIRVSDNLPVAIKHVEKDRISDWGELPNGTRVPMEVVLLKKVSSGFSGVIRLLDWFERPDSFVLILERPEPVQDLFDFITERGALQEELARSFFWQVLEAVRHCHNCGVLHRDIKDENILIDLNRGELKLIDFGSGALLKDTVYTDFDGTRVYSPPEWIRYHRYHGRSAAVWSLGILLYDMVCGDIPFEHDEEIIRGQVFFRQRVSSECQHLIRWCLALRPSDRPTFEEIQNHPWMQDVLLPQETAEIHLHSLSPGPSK

SMILES | IC50 (Pim3 kinase) [nM] | IC50 (Pim1 kinase) [nM]
C[C@@H]1C[C@H](c2ccncc2NC(=O)c2cccc(-c3c(F)cccc3F)n2)C[C@H](N)[C@H]1O (stereo in doubt) [Example 52, N-(4-((1S,3S,4S,5R)-3-amino-4-hydroxy-5-methylcyclohexyl)pyridin-3-yl)-6-(2,6-difluorophenyl)picolinamide] | 2 | 1
C[C@H]1C[C@@H](c2ccncc2NC(=O)c2ccc(F)c(C3CCCCC3)n2)C[C@@H](N)[C@@H]1O (stereo in doubt) [Example 89, N-(4-(3-amino-4-hydroxy-5-methylcyclohexyl)pyridin-3-yl)-6-cyclohexyl-5-fluoropicolinamide] | 29 | 8
C[C@H]1C[C@@H](c2ccncc2NC(=O)c2nc(C3CCCCC3)ccc2N)C[C@@H](N)[C@@H]1O (stereo in doubt) [Example 90, 3-amino-N-(4-(3-amino-4-hydroxy-5-methylcyclohexyl)pyridin-3-yl)-6-cyclohexylpicolinamide] | 12 | 3
C[C@@H]1C[C@H](N)C[C@H](c2ccncc2NC(=O)c2ccc(F)c(C3CCCCC3)n2)C1 (stereo in doubt) [Example 91, N-(4-(3-amino-5-methylcyclohexyl)pyridin-3-yl)-6-cyclohexyl-5-fluoropicolinamide] | 21 | 3
CC(=O)O[C@H]1CC[C@@H](c2ccncc2NC(=O)c2nc(-c3c(F)cccc3F)ccc2N)C[C@H]1N (stereo in doubt) [Example 101, 2-amino-4-(3-(3-amino-6-(2,6-difluorophenyl)picolinamido)pyridin-4-yl)cyclohexyl acetate] | 5 | 2
C[C@H]1C[C@@H](c2ccncc2NC(=O)c2nc(-c3c(F)cccc3F)c(F)cc2N)C[C@@H](N)[C@@H]1O (stereo in doubt) [Example 130, 3-amino-N-(4-(3-amino-4-hydroxy-5-methylcyclohexyl)pyridin-3-yl)-6-(2,6-difluorophenyl)-5-fluoropicolinamide] | – | 2
Nc1cc(F)c(-c2c(F)cccc2F)nc1C(=O)Nc1cnccc1[C@@H]1CC[C@H](O)[C@H](N)C1 (stereo in doubt) [Example 131, 3-amino-N-(4-(3-amino-4-hydroxycyclohexyl)pyridin-3-yl)-6-(2,6-difluorophenyl)-5-fluoropicolinamide] | – | 2
C[C@H]1C[C@@H](c2ccncc2NC(=O)c2nc(-c3c(F)cccc3F)c(F)cc2N)C[C@@H](N)[C@H]1O (stereo in doubt) [Example 132, 3-amino-N-(4-(3-amino-4-hydroxy-5-methylcyclohexyl)pyridin-3-yl)-6-(2,6-difluorophenyl)-5-fluoropicolinamide] | – | 1
C[C@@H]1C[C@H](N)C[C@H](c2ccncc2NC(=O)c2nc(-c3c(F)cccc3F)c(F)cc2N)C1 (stereo in doubt) [Example 133, 3-amino-N-(4-(3-amino-5-methylcyclohexyl)pyridin-3-yl)-6-(2,6-difluorophenyl)-5-fluoropicolinamide] | 7 | 1
C[C@H]1C[C@@H](c2ccncc2NC(=O)c2ccc(F)c(-c3c(F)cc(O)cc3F)n2)C[C@@H](N)[C@@H]1O [Example 4, N-(4-((1R,3R,4R,5S)-3-amino-4-hydroxy-5-methylcyclohexyl)pyridin-3-yl)-6-(2,6-difluoro-4-hydroxyphenyl)-5-fluoropicolinamide] | 2 | 1
C[C@H]1C[C@@H](c2ccncc2NC(=O)c2ccc(F)c(-c3cc(O)ccc3F)n2)C[C@@H](N)[C@@H]1O [Example 5, N-(4-((1R,3R,4R,5S)-3-amino-4-hydroxy-5-methylcyclohexyl)pyridin-3-yl)-5-fluoro-6-(2-fluoro-5-hydroxyphenyl)picolinamide] | 9 | 3
N[C@H]1CCC[C@@H](c2ccncc2NC(=O)c2cccc(-c3cc(O)ccc3F)n2)C1 [Example 7, N-(4-((1R,3S)-3-aminocyclohexyl)pyridin-3-yl)-6-(2-fluoro-5-hydroxyphenyl)picolinamide] | 2 | 1
N[C@H]1CCC[C@@H](c2ccncc2NC(=O)c2cccc(-c3c(F)cc(O)cc3F)n2)C1 [Example 8, N-(4-((1R,3S)-3-aminocyclohexyl)pyridin-3-yl)-6-(2,6-difluoro-4-hydroxyphenyl)picolinamide] | 2 | 1
N[C@H]1CCC[C@@H](c2ccncc2NC(=O)c2ccc(F)c(-c3ccc(O)cc3F)n2)C1 [Example 9, N-(4-((1R,3S)-3-aminocyclohexyl)pyridin-3-yl)-5-fluoro-6-(2-fluoro-4-hydroxyphenyl)picolinamide] | 2 | 1
CC1(C)C[C@H](N)C[C@H](c2ccncc2NC(=O)c2ccc(F)c(-c3ccc(O)cc3F)n2)C1 [Example 10, N-(4-((1R,5R)-5-amino-3,3-dimethylcyclohexyl)pyridin-3-yl)-5-fluoro-6-(2-fluoro-4-hydroxyphenyl)picolinamide] | 6 | 1
Cc1ccc(F)c(-c2nc(C(=O)Nc3cnccc3[C@H]3C[C@@H](N)CC(C)(C)C3)ccc2F)c1F [Example 11, N-(4-((1R,5R)-5-amino-3,3-dimethylcyclohexyl)pyridin-3-yl)-6-(2,6-difluoro-3-methylphenyl)-5-fluoropicolinamide] | 4 | 1

SMILES | IC50 (Pim3 kinase) [nM] | IC50 (Pim1 kinase) [nM]
Cc1ccc(F)c(-c2cccc(C(=O)Nc3cnccc3N3C[C@@H](N)[C@H](O)[C@@H](C)C3)n2)c1F [Example 13, N-(4-((3R,4R,5S)-3-amino-4-hydroxy-5-methylpiperidin-1-yl)pyridin-3-yl)-6-(2,6-difluoro-3-methylphenyl)picolinamide] | 3 | 1
C[C@H]1CN(c2ccncc2NC(=O)c2ccc(F)c(C3CCCCC3)n2)C[C@@H](N)[C@@H]1O [Example 16, N-(4-((3R,4R,5S)-3-amino-4-hydroxy-5-methylpiperidin-1-yl)pyridin-3-yl)-6-cyclohexyl-5-fluoropicolinamide] | – | 1
C[C@H]1CN(c2ccncc2NC(=O)c2ccc(F)c(-c3ccccc3F)n2)C[C@@H](N)[C@@H]1O [Example 25, N-(4-((3R,4R,5S)-3-amino-4-hydroxy-5-methylpiperidin-1-yl)pyridin-3-yl)-5-fluoro-6-(2-fluorophenyl)picolinamide] | – | 1
C[C@H]1CN(c2ccncc2NC(=O)c2cccc(-c3c(F)cccc3F)n2)C[C@@H](N)[C@@H]1O [Example 26, N-(4-((3R,4R,5S)-3-amino-4-hydroxy-5-methylpiperidin-1-yl)pyridin-3-yl)-6-(2,6-difluorophenyl)picolinamide] | – | 1
C[C@@H]1C[C@H](N)C[C@H](c2ccncc2NC(=O)c2nc(-c3c(F)cc(O)cc3F)ccc2F)C1 [Example 42, N-(4-((1R,3S,5S)-3-amino-5-methylcyclohexyl)pyridin-3-yl)-6-(2,6-difluoro-4-hydroxyphenyl)-3-fluoropicolinamide] | – | 1
COc1ccc(F)c(-c2nc(C(=O)Nc3cnccc3[C@@H]3C[C@H](C)C[C@H](N)C3)ccc2F)c1 [Example 45, N-(4-((1R,3S,5S)-3-amino-5-methylcyclohexyl)pyridin-3-yl)-5-fluoro-6-(2-fluoro-5-methoxyphenyl)picolinamide] | – | 1
C[C@@H]1C[C@H](N)C[C@H](c2ccncc2NC(=O)c2ccc(F)c([C@H]3CC[C@@H](O)CC3)n2)C1 [Example 54, N-(4-((1R,3S,5S)-3-amino-5-methylcyclohexyl)pyridin-3-yl)-5-fluoro-6-((1s,4s)-4-hydroxycyclohexyl)picolinamide] | – | 3
C[C@@H]1C[C@H](N)C[C@H](c2ccncc2NC(=O)c2ccc(F)c([C@H]3CC[C@H](O)CC3)n2)C1 [Example 55, N-(4-((1R,3S,5S)-3-amino-5-methylcyclohexyl)pyridin-3-yl)-5-fluoro-6-((1r,4r)-4-hydroxycyclohexyl)picolinamide] | – | 3
Nc1cc(F)c(-c2c(F)cccc2F)nc1C(=O)Nc1cnccc1[C@@H]1CC[C@H](O)[C@H](N)C1 [Example 65, 3-amino-N-(4-((1R,3R,4S)-3-amino-4-hydroxycyclohexyl)pyridin-3-yl)-6-(2,6-difluorophenyl)-5-fluoropicolinamide] | – | 1
Nc1ccc(-c2c(F)cccc2F)nc1C(=O)Nc1cnccc1[C@@H]1CC[C@H](O)[C@@H](N)C1 [Example 104, 3-amino-N-(4-((1R,3S,4S)-3-amino-4-hydroxycyclohexyl)pyridin-3-yl)-6-(2,6-difluorophenyl)picolinamide] | – | 3
Nc1ccc(-c2c(F)cccc2F)nc1C(=O)Nc1cnccc1C1=CC(N)CCC1 (stereo not drawn) [Example 107, 3-amino-N-(4-(3-aminocyclohex-1-enyl)pyridin-3-yl)-6-(2,6-difluorophenyl)picolinamide] | – | 2
COc1cc(F)c(-c2cccc(C(=O)Nc3cnccc3[C@H]3C[C@@H](N)C[C@@H](C(F)(F)F)C3)n2)c(F)c1 [Example 109, N-(4-((1R,3R,5S)-3-amino-5-(trifluoromethyl)cyclohexyl)pyridin-3-yl)-6-(2,6-difluoro-4-methoxyphenyl)picolinamide] | – | 1
C[C@H]1C[C@@H](c2ccncc2NC(=O)c2nc(-c3c(F)cccc3F)c(F)cc2N)C[C@@H](O)[C@@H]1O [Example 121, 3-amino-6-(2,6-difluorophenyl)-N-(4-((1R,3R,4R,5S)-3,4-methylcyclohexyl)pyridin-3-yl)-5-fluoropicolinamide] | 2 | –
CC1(C)C[C@H](N)C[C@H](c2ccncc2NC(=O)c2ccc(F)c(-c3c(F)cc(O)cc3F)n2)C1 [Example 122, N-(4-((1R,5R)-5-amino-3,3-dimethylcyclohexyl)pyridin-3-yl)-6-(2,6-difluoro-4-hydroxyphenyl)-5-fluoropicolinamide] | – | 1
C[C@H]1C[C@@H](c2ccncc2NC(=O)c2ccc(F)c(-c3c(F)cccc3F)n2)C[C@@H](N)[C@H]1F [Example 139, N-(4-((1R,3R,4S,5S)-3-amino-4-fluoro-5-methylcyclohexyl)-pyridin-3-yl)-6-(2,6-difluorophenyl)-5-fluoropicolinamide] | 4 | –
